Test results as given in ChEMBL document CHEMBL5512662, “Illuminating Dark Chemical Matter Using the Cell Painting Assay” (J Med Chem, 2024).

Experiments:
Shh Light II = assay: Inhibition of purmorphamine-induced osteoblast differentiation in mouse Shh Light II cells preincubated for 1 hr followed by purmorphamine addition for 48 hrs by luminescence based reporter gene assay; assay type: functional, cell-based
C3H 10T1/2 = assay: Inhibition of purmorphamine-induced osteoblast differentiation in mouse C3H 10T1/2 cells assessed as reduction in alkaline phosphatase level preincubated for 1 hr followed by purmorphamine addition for 4 days by luminescence based assay; assay type: functional, cell-based

Row | IC50 (Shh Light II) | IC50 (C3H 10T1/2) | Compound
1 | 470 nM | 90 nM | COCCNC(=O)C1CCN(C(=O)c2cc3sccc3n2Cc2ccc(F)cc2)CC1
2 | – | 320 nM | CCOc1ccc(Oc2nc(Nc3ccc(C)cc3)nc(N(C)C)n2)nn1
3 | 2170 nM | 310 nM | CN(CCCNC(=O)c1nn(C)c2c1CS(=O)(=O)c1ccccc1-2)Cc1ccccc1
4 | 1400 nM | 540 nM | COc1ccccc1CCNC(=O)CCCn1nc(C)c2c(C)n(-c3ccc(C)cc3)nc2c1=O
